Drawing on US20080045537A1, “Chemical Compounds” (priority 2004, published 2008), this text covers IC50 for 29 compounds.

Molecules are shown by their SMILES. Where two headings read alike, the source gives them in different places.

The assay concerns HIV-1 IIIB (T-tropic, CXCR4 utilizing). The assay can be described thus: HOS HIV-1 infectivity assay. It is filed as cell-based. The note with it: Human immunodeficiency virus 1, IIIB, read-out: Activity Level. The procedure: Compounds were profiled against two HIV-1 viruses, the M-tropic (CCR5 utilizing) Ba-L strain and the T-tropic (CXCR4 utilizing) IIIB strain. Both viruses were propagated in human peripheral blood lymphocytes. Compounds were tested for there ability to block infection of the HOS cell line (expressing hCXCR4/hCCR5/hCD4/pHIV-LTR-luciferase) by either HIV-1 Ba-L or HIV-1 IIIB. Compound cytotoxicity was also examined in the absence of virus addition.
HOS cells (expressing hCXCR4/hCCR5/hCD4/pHIV-LTR-luciferase) were harvested and diluted in Dulbeccos modified Eagles media supplemented with 2% FCS and non-essential amino acid to a concentration of 60,000 cells/ml. The cells were plated into 96-well plates (100 ul per well) and the plates were placed in a tissue culture incubator (37° C.; 5% CO2/95% air) for a period of 24 h.
Subsequently, 50 ul of the desired drug solution (4 times the final concentration) was added to each well and the plates were returned to the tissue culture incubator (37° C.; 5% CO2/95% air) for 1 h. Following this incubation 50 ul of diluted virus was added to each well (approximately 2 million RLU per well of virus). The plates were returned to the tissue culture incubator (37° C.; 5% CO2/95% air) and were incubated for a further 96 h.
Following this incubation the endpoint for the virally infected cultures was quantified following addition of Steady-Glo Luciferase assay system reagent (Promega, Madison, Wis.). Cell viability or non-infected cultures was measured using a CellTiter-Glo luminescent cell viability assay system (Promega, Madison, Wis.). All luminescent readouts are performed on a Topcount luminescence detector (Packard, Meridien, Conn.).

The mark [1] stands for this setting: as determined by the infectivity assay, strain not stated in Table 2.

For the compound `CN(Cc1nc2c(C(=O)NCCCN3CCOCC3)cccc2[nH]1)C1CCCc2cccnc21` (centres unmarked) [Example 74, 2-{[Methyl(5,6,7,8-tetrahydro-8-quinolinyl)amino]methyl}-N-[3-(4-morpholinyl)propyl]-1H-benzimidazole-4-carboxamide], under setting [1], the IC50 was less than 100 nM.
Still for that read-out and setting: to `CN(Cc1nc2c(C(=O)NCc3nc4ccccc4[nH]3)cccc2[nH]1)C1CCCc2cccnc21` (centres unmarked) [Example 75, N-(1H-Benzimidazol-2-ylmethyl)-2-{[methyl(5,6,7,8-tetrahydro-8-quinolinyl)amino]methyl}-1H-benzimidazole-4-carboxamide] belongs less than 100 nM; to `CN(Cc1nc2c(C(=O)NCCc3ccccn3)cccc2[nH]1)C1CCCc2cccnc21` (centres unmarked) [Example 76, 2-{[Methyl(5,6,7,8-tetrahydro-8-quinolinyl)amino]methyl}-N-[2-(2-pyridinyl)ethyl]-1H-benzimidazole-4-carboxamide], 100 to 500 nM; to `CN(Cc1nc2c(C(=O)NC3CCNCC3)cccc2[nH]1)C1CCCc2cccnc21` (centres unmarked) [Example 77, 2-{[Methyl(5,6,7,8-tetrahydro-8-quinolinyl)amino]methyl}-N-4-piperidinyl-1H-benzimidazole-4-carboxamide], 100 to 500 nM.
Take `CN(Cc1nc2c(C(=O)NC3CCNC3)cccc2[nH]1)C1CCCc2cccnc21` (centres unmarked) [Example 78, 2-{[Methyl(5,6,7,8-tetrahydro-8-quinolinyl)amino]methyl}-N-3-pyrrolidinyl-1H-benzimidazole-4-carboxamide]: the IC50 under setting [1] is less than 100 nM.
As for `CN(Cc1nc2c(C(=O)NCCCn3ccnc3)cccc2[nH]1)C1CCCc2cccnc21` (centres unmarked) [Example 79, N-[3-(1H-Imidazol-1-yl)propyl]-2-{[methyl(5,6,7,8-tetrahydro-8-quinolinyl)amino]methyl}-1H-benzimidazole-4-carboxamide], under setting [1], the IC50 was less than 100 nM.
For the compound `CN(C)CC(C)(C)CNC(=O)c1cccc2[nH]c(CN(C)C3CCCc4cccnc43)nc12` (centres unmarked) [Example 80, N-[3-(Dimethylamino)-2,2-dimethylpropyl]-2-{[methyl(5,6,7,8-tetrahydro-8-quinolinyl)amino]methyl}-1H-benzimidazole-4-carboxamide], the IC50 under setting [1] fell in the range of 100 to 500 nM.
Still for that read-out and setting: to `CN(Cc1nc2c(C(=O)NCCc3c[nH]c4ccccc34)cccc2[nH]1)C1CCCc2cccnc21` (centres unmarked) [Example 81, N-[2-(1H-Indol-3-yl)ethyl]-2-{[methyl(5,6,7,8-tetrahydro-8-quinolinyl)amino]methyl}-1H-benzimidazole-4-carboxamide] belongs 500 to 10000 nM; to `CN(Cc1nc2c(C(=O)N3CCC(N)CC3)cccc2[nH]1)C1CCCc2cccnc21` (centres unmarked) [Example 82, N-({4-[(4-Amino-1-piperidinyl)carbonyl]-1H-benzimidazol-2-yl}methyl)-N-methyl-5,6,7,8-tetrahydro-8-quinolinamine], less than 100 nM; to `CN(Cc1nc2c(C(=O)N3CCC(N)C3)cccc2[nH]1)C1CCCc2cccnc21` (centres unmarked) [Example 83, N-({4-[(3-amino-1-pyrrolidinyl)carbonyl]-1H-benzimidazol-2-yl}methyl)-N-methyl-5,6,7,8-tetrahydro-8-quinolinamine], less than 100 nM.
Turning to `CC(=O)N1CCN(C(=O)c2cccc3[nH]c(CN(C)C4CCCc5cccnc54)nc23)CC1` (centres unmarked) [Example 84, N-({4-[(4-Acetyl-1-piperazinyl)carbonyl]-1H-benzimidazol-2-yl}methyl)-N-methyl-5,6,7,8-tetrahydro-8-quinolinamine], the IC50 under setting [1] fell in the range of 100 to 500 nM.
The same measure, in the same setting: for `CCS(=O)(=O)N1CCN(C(=O)c2cccc3[nH]c(CN(C)C4CCCc5cccnc54)nc23)CC1` (centres unmarked) [Example 85, N-[(4-{[4-(Ethylsulfonyl)-1-piperazinyl]carbonyl}-1H-benzimidazol-2-yl)methyl]-N-methyl-5,6,7,8-tetrahydro-8-quinolinamine] the value was 100 to 500 nM; for `CN1CCCN(C(=O)c2cccc3[nH]c(CN(C)C4CCCc5cccnc54)nc23)CC1` (centres unmarked) [Example 86, N-Methyl-N-({4-[(4-methylhexahydro-1H-1,4-diazepin-1-yl)carbonyl]-1H-benzimidazol-2-yl}methyl)-5,6,7,8-tetrahydro-8-quinolinamine], less than 100 nM; for `CC(C)N1CCN(C(=O)c2cccc3[nH]c(CN(C)C4CCCc5cccnc54)nc23)CC1` (centres unmarked) [Example 87, N-Methyl-N-[(4-{[4-(1-methylethyl)-1-piperazinyl]carbonyl}-1H-benzimidazol-2-yl)methyl]-5,6,7,8-tetrahydro-8-quinolinamine], 100 to 500 nM.
Still for that read-out and setting: to `CN1CCC(NC(=O)c2cccc3[nH]c(CN(C)C4CCCc5cccnc54)nc23)CC1` (centres unmarked) [Example 88, N-(1-methyl-4-piperidinyl)-2-{[methyl(5,6,7,8-tetrahydro-8-quinolinyl)amino]methyl}-1H-benzimidazole-4-carboxamide] belongs 100 to 500 nM.
With `CN(C)C1CCN(C(=O)c2cccc3[nH]c(CN(C)C4CCCc5cccnc54)nc23)C1` (centres unmarked) [Example 89, N-[(4-{[3-(Dimethylamino)-1-pyrrolidinyl]carbonyl}-1H-benzimidazol-2-yl)methyl]-N-methyl-5,6,7,8-tetrahydro-8-quinolinamine], the IC50 under setting [1] lay within 100 to 500 nM.
For the compound `CN(CCc1c[nH]cn1)C(=O)c1cccc2[nH]c(CN(C)C3CCCc4cccnc43)nc12` (centres unmarked) [Example 90, N-[2-(1H-imidazol-4-yl)ethyl]-N-methyl-2-{[methyl(5,6,7,8-tetrahydro-8-quinolinyl)amino]methyl}-1H-benzimidazole-4-carboxamide], the IC50 under setting [1] is less than 100 nM.
On to `CC1CNCCN1C(=O)c1cccc2[nH]c(CN(C)C3CCCc4cccnc43)nc12` (centres unmarked) [Example 91, N-methyl-N-({4-[(2-methyl-1-piperazinyl)carbonyl]-1H-benzimidazol-2-yl}methyl)-5,6,7,8-tetrahydro-8-quinolinamine], for which the IC50 under setting [1] was less than 100 nM.
Turning to `CN(Cc1nc2c(C(=O)N3C[C@@H]4C[C@H]3CN4)cccc2[nH]1)C1CCCc2cccnc21` (stereo partly drawn) [Example 92, N-({4-[(1S,4S)-2,5-diazabicyclo[2.2.1]hept-2-ylcarbonyl]-1H-benzimidazol-2-yl}methyl)-N-methyl-5,6,7,8-tetrahydro-8-quinolinamine], the IC50 is less than 100 nM.
As to `CN(Cc1nc2c(C(=O)N3CCCNCC3)cccc2[nH]1)C1CCCc2cccnc21` (centres unmarked) [Example 93, N-{[4-(hexahydro-1H-1,4-diazepin-1-ylcarbonyl)-1H-benzimidazol-2-yl]methyl}-N-methyl-5,6,7,8-tetrahydro-8-quinolinamine], under setting [1], the IC50 was less than 100 nM.
The same measure, in the same setting: to `CN(C)CCCc1cccc2[nH]c(CN(C)C3CCCc4cccnc43)nc12` (centres unmarked) [Example 94, N-({4-[3-(Dimethylamino)propyl]-1H-benzimidazol-2-yl}methyl)-N-methyl-5,6,7,8-tetrahydro-8-quinolinamine] belongs less than 100 nM; to `CN(Cc1nc2c(CCCN3CCCC3)cccc2[nH]1)C1CCCc2cccnc21` (centres unmarked) [Example 95, N-Methyl-N-({4-[3-(1-pyrrolidinyl)propyl]-1H-benzimidazol-2-yl}methyl)-5,6,7,8-tetrahydro-8-quinolinamine], less than 100 nM.
On to `CN(Cc1nc2c(CCCN3CCCCC3)cccc2[nH]1)C1CCCc2cccnc21` (centres unmarked) [Example 96, N-methyl-N-({4-[3-(1-piperidinyl)propyl]-1H-benzimidazol-2-yl}methyl)-5,6,7,8-tetrahydro-8-quinolinamine], for which the IC50 under setting [1] is less than 100 nM.
Regarding `CN(Cc1nc2c(CCCN)cccc2[nH]1)C1CCCc2cccnc21` (centres unmarked) [Example 97, N-{[4-(3-aminopropyl)-1H-benzimidazol-2-yl]methyl}-N-methyl-5,6,7,8-tetrahydro-8-quinolinamine], the IC50 under setting [1] was less than 100 nM.
Still for that read-out and setting: to `CN(Cc1nc2c(NC(=O)CN)cccc2[nH]1)C1CCCc2cccnc21` (centres unmarked) [Example 99, N^1-(2-{[methyl(5,6,7,8-tetrahydro-8-quinolinyl)amino]methyl}-1H-benzimidazol-4-yl)glycinamide] belongs 100 to 500 nM; to `CN(Cc1nc2c(NC(=O)CCN3CCCCC3)cccc2[nH]1)C1CCCc2cccnc21` (centres unmarked) [Example 100, N-(2-{[methyl(5,6,7,8-tetrahydro-8-quinolinyl)amino]methyl}-1H-benzimidazol-4-yl)-3-(1-piperidinyl)propanamide], 100 to 500 nM.
For `CN(Cc1nc2c(-n3ccnc3)cccc2[nH]1)C1CCCc2cccnc21` (centres unmarked) [Example 101, N-{[4-(1H-Imidazol-1-yl)-1H-benzimidazol-2-yl]methyl}-N-methyl-5,6,7,8-tetrahydro-8-quinolinamine], under setting [1], the IC50 lay within 100 to 500 nM.
As for `CN(Cc1nc2c(NC(=O)c3cccnc3)cccc2[nH]1)C1CCCc2cccnc21` (centres unmarked) [Example 102, N-(2-{[Methyl(5,6,7,8-tetrahydro-8-quinolinyl)amino]methyl}-1H-benzimidazol-4-yl)-3-pyridinecarboxamide], the IC50 under setting [1] was in the range of 100 to 500 nM.
On the same count and under the same terms, to `CN(Cc1nc2c(NC(=O)c3ccncc3)cccc2[nH]1)C1CCCc2cccnc21` (centres unmarked) [Example 103, N-(2-{[Methyl(5,6,7,8-tetrahydro-8-quinolinyl)amino]methyl}-1H-benzimidazol-4-yl)-4-pyridinecarboxamide] belongs 500 to 10000 nM.
